System: progranulin (PGRN)
Assay: progranulin induction cellular assay (PGRN assay), ELISA-based readout
Details: PGRN assay as described: mouse primary microglia, primary cortical neurons and BV-2 cell lines; secreted mouse PGRN in medium by ELISA; cell type for Table B not specified

EC50 [nM] | Compound
99 | N[C@H]1C[C@H](C(=O)N2CCc3ccccc3[C@@H]2c2ccc(F)cc2)C1 [Compound 4147, (trans-3-aminocyclobutyl)((S)-1-(4-fluorophenyl)-3,4-dihydroisoquinolin-2(1H)-yl)methanone]
92 | N[C@H]1C[C@@H](C(=O)N2CCc3ccccc3[C@@H]2c2ccc(F)cc2)C1 [Compound 4148, (cis-3-aminocyclobutyl)((S)-1-(4-fluorophenyl)-3,4-dihydroisoquinolin-2(1H)-yl)methanone]
245 | NC[C@H]1C[C@H](C(=O)N2CCc3ccccc3[C@@H]2c2ccc(F)cc2)C1 [Compound 4149, (trans-3-(aminomethyl)cyclobutyl)((S)-1-(4-fluorophenyl)-3,4-dihydroisoquinolin-2(1H)-yl)methanone]
79 | NC[C@H]1C[C@@H](C(=O)N2CCc3ccccc3[C@@H]2c2ccc(F)cc2)C1 [Compound 4150, (cis-3-(aminomethyl)cyclobutyl)((S)-1-(4-fluorophenyl)-3,4-dihydroisoquinolin-2(1H)-yl)methanone]
83 | N[C@]1(CO)C[C@H](C(=O)N2CCc3ccccc3[C@@H]2c2ccc(F)cc2)C1 [Compound 4151, (cis-3-amino-3-(hydroxymethyl)cyclobutyl)((S)-1-(4-fluorophenyl)-3,4-dihydroisoquinolin-2(1H)-yl)methanone]
245 | N[C@]1(CO)C[C@@H](C(=O)N2CCc3ccccc3[C@@H]2c2ccc(F)cc2)C1 [Compound 4152, (trans-3-amino-3-(hydroxymethyl)cyclobutyl)((S)-1-(4-fluorophenyl)-3,4-dihydroisoquinolin-2(1H)-yl)methanone]
112 | NC[C@]1(O)C[C@H](C(=O)N2CCc3ccccc3[C@@H]2c2ccc(F)cc2)C1 [Compound 4154, (trans-3-(aminomethyl)-3-hydroxycyclobutyl)((S)-1-(4-fluorophenyl)-3,4-dihydroisoquinolin-2(1H)-yl)methanone]
131 | N[C@H]1C[C@@H](OC(=O)N2CCc3ccccc3[C@@H]2c2ccc(F)cc2)C1 [Compound 4155, cis-3-aminocyclobutyl (S)-1-(4-fluorophenyl)-3,4-dihydroisoquinoline-2(1H)-carboxylate]

Source: patent publication US20230115534A1 (ARKUDA THERAPEUTICS, priority 2019, published 2023)
